Laboratory results from patent publication EP0548790A1, “(1'S)-Hydroxyalkyloxapenem-3-carboxylic acids and their use as beta-lactamase inhibitors” (ELI LILLY AND COMPANY, priority 1991, dated 1993).

Assays:
E. coli TEM 1 = test: agar diffusion test, inhibition zone diameter (Hemmhof), inhibitor alone and combined with Cefaclor; type: cell-based, E. coli W 311O3 R6K (TEM 1); details: for zone of inhibition at 10 µg/disc: Escherichia coli, TEM1, read-out: Hemmhofdurchmesser mm (E. coli TEM 1) I (10 mcg); for Hemmhofzuwachs, d.h. die Schutzwirkung: increase of zone with Cefaclor versus alone; for Eigenwirkung als Antibiotika: inhibitor alone; for Wirkung als Betalactamasehemmer gegen E. coli TEM 1: protection of Cefaclor against the bacterial enzyme
Description: "like" bedeutet gleiche absolute Konfiguration zweier benachbarter Chiralitätszentren. Als Testkeim wurde ein besonders starker Betalactamase-Bildner verwendet. E. coli W 311O3 R6K (TEM 1) wurde deshalb mehrfach in einer Kulturlösung mit 2O mcg/ml Cefaclor bebrütet. Cefaclor allein (3O mcg) ergab einen Hemmhof von 16 mm, mit 1O mcg Clavulansäure kombiniert einen solchen von 22 mm Durchmesser.

Pseudomonas aeruginosa = details: comparison with Clavulansäure; from earlier filing EP 89117433.6; cited from earlier work
[1] = system: Penicillin resistenten Staph. aureus; details: comparison with Clavulansäure; from earlier filing EP 89117433.6; cited from earlier work
[2] = molecular target: T1, Cephalosporinasen aus Enterobacter cloacae (Enterobacter cloacae, UniProt P05364); details: reported in Amer. J. Med. 79 (suppl. 5B), 194 (1985); cited from earlier work
T1 construct: dagegen ist auch gegen diese Keime als Betalactamasehemmer wirksam; endogenous in cells

[3] = molecular target: T2, Cephalosporinasen aus Pseudomonas aeruginosa (Pseudomonas aeruginosa, UniProt P24735); details: reported in Amer. J. Med. 79 (suppl. 5B), 194 (1985); cited from earlier work
T2 construct: dagegen ist auch gegen diese Keime als Betalactamasehemmer wirksam; endogenous in cells

E. cloacae = test: inhibition zone diameter, third-generation cephalosporin combined with inhibitor; type: cell-based
Description: Die erfindungsgemässen Verbindungen sind in der Lage, schon in geringen Konzentrationen die Hemmwirkung aller untersuchter Penicilline wie z. B. Amoxycillin, Piperacillin, Mezlocillin oder Cephalosporine wie z. B. Cefaclor, Cefoperazon gegen Betalactamase-bildende Bakterien zu verstärken. Auch gemeinhin als Betalactamase-stabile geltende Cephalosporine der dritten Generation wie z. B. Cefotaxim oder Ceftriaxon (je 3O mcg) ergaben in der Kombination mit Ie (1O mcg) erstmals deutliche Hemmhöfe vom Durchmesser 27 bzw. 26 mm gegen E. cloacae. Die erfindungsgemässen Verbindungen sind stark wirksam gegen Penicillinasen und Cephalosporinasen.

[4] = molecular target: T2, Cephalosporinasen aus Pseudomonas aeruginosa; test: beta-lactamase inhibitor activity against cephalosporinase producer; details: requires partner antibiotic able to enter the bacterium
[5] = molecular target: T1, Cephalosporinasen aus Enterobacter cloacae; test: as above; details: requires partner antibiotic able to enter the bacterium

T1 sequence (P05364 21-381): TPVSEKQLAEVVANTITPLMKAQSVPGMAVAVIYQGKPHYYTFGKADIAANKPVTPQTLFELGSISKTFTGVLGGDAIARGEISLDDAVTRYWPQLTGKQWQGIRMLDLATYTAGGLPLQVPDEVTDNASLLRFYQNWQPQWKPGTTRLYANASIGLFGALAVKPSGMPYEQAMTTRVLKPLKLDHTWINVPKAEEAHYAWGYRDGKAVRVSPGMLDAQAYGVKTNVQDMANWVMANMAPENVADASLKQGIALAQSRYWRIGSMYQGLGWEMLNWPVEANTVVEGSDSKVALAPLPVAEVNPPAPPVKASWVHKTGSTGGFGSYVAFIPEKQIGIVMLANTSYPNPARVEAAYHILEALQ
T2 sequence (P24735 27-397): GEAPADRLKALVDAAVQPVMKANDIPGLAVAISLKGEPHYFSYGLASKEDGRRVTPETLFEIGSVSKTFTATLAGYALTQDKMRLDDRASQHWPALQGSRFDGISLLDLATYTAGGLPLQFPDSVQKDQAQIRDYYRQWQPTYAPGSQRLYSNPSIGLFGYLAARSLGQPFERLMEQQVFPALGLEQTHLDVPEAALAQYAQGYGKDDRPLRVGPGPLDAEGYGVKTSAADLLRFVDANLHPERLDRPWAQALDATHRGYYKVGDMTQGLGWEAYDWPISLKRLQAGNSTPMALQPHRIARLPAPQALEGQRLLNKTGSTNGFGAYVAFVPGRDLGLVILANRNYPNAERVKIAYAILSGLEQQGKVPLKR

C[C@@H](O)[C@H]1C(=O)N2C(C(=O)O)=C(C(C)(C)C)O[C@H]12 [Id]
zone of inhibition at 10 µg/disc (E. coli TEM 1): 23 mm
Hemmhofzuwachs, d.h. die Schutzwirkung (E. coli TEM 1): vergleichsweise gering
Eigenwirkung als Antibiotika (E. coli TEM 1): gute Eigenwirkung

C[C@H](O)[C@H]1C(=O)N2C(C(=O)O)=C(C(C)(C)C)O[C@@H]12 (racemic) [Ic, racemischer cis-2-tert-Butyl-6-(unlike-hydroxyethyl)oxapenem-3-carbonsäure]
zone of inhibition at 10 µg/disc (E. coli TEM 1): 9 mm

C[C@H](O)[C@H]1C(=O)N2C(C(=O)O)=C(C(C)(C)C)O[C@H]12 (racemic) [Ib, racemischer trans-2-tert-Butyl-6-(unlike-hydroxyethyl)oxapenem-3-carbonsäure]
zone of inhibition at 10 µg/disc (E. coli TEM 1): 0 mm
Wirkung als Betalactamasehemmer gegen E. coli TEM 1 (E. coli TEM 1): besonders gute Wirkung

CC(C)(C)C1=C(C(=O)O)N2C(=O)[C@H](CO)[C@H]2O1 (racemic) [Ia, 2-tert-Butyl-6-hydroxymethyloxapenem-3-carbonsäure (K-Salz)]
Wirksamkeit in der Kombination mit Mezlocillin (Pseudomonas aeruginosa): wirksamer als Clavulansäure
zone of inhibition at 10 µg/disc (E. coli TEM 1): 17 mm
Hemmhofzuwachs, d.h. die Schutzwirkung (E. coli TEM 1): vergleichsweise gering
Eigenwirkung als Antibiotika (E. coli TEM 1): gute Eigenwirkung
Wirksamkeit in der Kombination mit Mezlocillin [1]: wirksamer als Clavulansäure

O=C(O)[C@H]1/C(=C/CO)O[C@@H]2CC(=O)N21 [Clavulansäure]
Hemmhof Durchmesser (E. coli TEM 1; Cefaclor 3O mcg combined with 1O mcg Clavulansäure): 22 mm
Wirkung gegen Cephalosporinasen [2]: nicht
Wirkung gegen Cephalosporinasen [3]: nicht

N[C@@H](C(=O)N[C@@H]1C(=O)N2C(C(=O)O)=C(Cl)CS[C@H]12)c1ccccc1 [Cefaclor, reference compound]
Hemmhof (E. coli TEM 1; Cefaclor allein (3O mcg)): 16 mm

C[C@H](O)[C@H]1C(=O)N2C(C(=O)O)=C(C(C)(C)C)O[C@H]12 [Ie, (5R,6R)-2-tert-Butyl-((1S)-hydroxyethyl)oxapenem-3-carbonsäure (K-Salz)]
zone of inhibition at 10 µg/disc (E. coli TEM 1): 0 mm
Wirkung als Betalactamasehemmer gegen E. coli TEM 1 (E. coli TEM 1): besonders gute Wirkung
Hemmhöfe vom Durchmesser (E. cloacae; Cefotaxim 3O mcg combined with Ie 1O mcg): 27 mm
Hemmhöfe vom Durchmesser (E. cloacae; Ceftriaxon 3O mcg combined with Ie 1O mcg): 26 mm
Wirkung als Betalactamasehemmer [4]: wirksam
Wirkung als Betalactamasehemmer [5]: wirksam
